The values that follow come from patent publication US10201546B2, “Quinolinyl modulators of RORγt” (Janssen Pharmaceutica NV, priority 2013, dated 2019).

Molecules are shown by their SMILES. Structures can show the parent of a compound that is named as a salt. Where two headings read alike, the source gives them in different places.

For assay [1], the system named is IL-17 production by CD4+ T cells under conditions which favor Th17 differentiation. Briefly: Human Th17 assay (IL-17 production by CD4 T cells). Format: cell-based.
Procedure: The human Th17 assay tests the effect of RORγt modulatory compounds on IL-17 production by CD4 T cells under conditions which favor Th17 differentiation. Total CD4^+ T cells were isolated from the peripheral blood mononuclear cells (PBMC) of healthy donors using a CD4^+ T cell isolation kit II, following the manufacturer's instructions (Miltenyi Biotec). […] 50 μL of compound at titrated concentrations in DMSO were added into each well at final DMSO concentration at 0.2%. Cells were incubated for 1 hour, then 50 μL of Th17 cell differentiation medium was added to each well. The final concentrations of antibodies and cytokines (R&D Systems) in differentiation medium were: 3×10^6/mL anti-CD3/CD28 beads (prepared using human T cell activation/expansion kit, Miltenyi Biotec), 10 μg/mL anti-IL4, 10 μg/mL anti-IFNγ, 10 ng/mL IL113, 10 ng/mL IL23, 50 ng/mL IL6, 3 ng/mL TGFβ and 20 U/mL IL2. Cells were cultured at 37° C. and 5% CO2 for 3 days. Supernatants were collected and the accumulated IL-17 in culture was measured by using MULTI-SPOT® Cytokine Plate following manufacture's instruction (Meso Scale Discovery). The plate was read using Sector Imager 6000, and IL-17 concentration was extrapolated from the standard curve. The IC50s were determined by GraphPad.
Assay [2] concerns the target human RORγt LBD fused to the DNA binding domain of the GAL4 protein (Homo sapiens (Human), UniProt P51449). Briefly: RORγt (LBD) reporter assay in HEK293T cells. Details: RORγt (LBD) Reporter Assay, % inhibition: dose or concentration left out as unconfirmed. The class given is cell-based. A general note: A reporter such as luciferase makes a cellular process visible.
Source text: A reporter assay was used to test functional activity of RORγt modulatory compounds on transcriptional activation driven by the RORγt LBD. Cells used in the assay were co-transfected with two constructs. The first construct, pBIND-RORγt LBD, contained the wild type human RORγt LBD fused to the DNA binding domain of the GAL4 protein. The second construct, pGL4.31 (Promega Cat no. C935A), contained multiple GAL4 responsive DNA elements upstream of firefly luciferase.
The pBIND vector contains the GAL4 DNA Binding Domain (GAL4 DBD) and the renilla luciferase gene under control of the SV40 promoter. Renilla luciferase expression serves as a control for transfection efficiency and cell viability.
The reporter assay was performed by transiently transfecting HEK293T cells with 5 μg of pBIND-RORγt LBD or pBIND-RORγt LBD-AF2 and 5 μg pGL4.31 (Promega Cat no. C935A) using Fugene 6 (Invitrogen Cat no. E2691) at a 1:6 ratio of DNA:Fugene 6 in a T-75 flask in which cells were at least 80% confluent. Twenty four hours after bulk transfection, cells were plated into 96-well plates at 50,000 cells/well in phenol-red free DMEM containing 5% Lipid Reduced FCS and Pen/Strep. Six hours after plating, cells were treated with compounds for 24 hours. Media was removed and cells were lysed with 50 μL 1× Glo Lysis Buffer (Promega). Dual Glo Luciferase Reagent (50 μL/well) was then added and firefly luciferase luminescence was read on an Envision after a ten minute incubation. Finally, Stop and Glo reagent (50 L/well) was added and renilla luciferase luminescence was read on an Envision after a ten minute incubation. To calculate the effect of compounds on RORγt activity, the ratio of firefly to renilla luciferase was determined and plotted against compound concentration. Agonist compounds increase RORγt-driven luciferase expression, and antagonist or inverse agonist compounds decrease luciferase expression.
The target in assay [3] is human RORγt ligand binding domain (RORγt LBD) (Homo sapiens (Human), UniProt P51449). Briefly: RORγt ThermoFluor assay (thermal shift, binding affinity Kd). The settings on record: read-out: ThermoFluor Assay, Kd.
Chain of human RORγt ligand binding domain (RORγt LBD) (P51449 other isoform, or with tags, fused parts or gaps): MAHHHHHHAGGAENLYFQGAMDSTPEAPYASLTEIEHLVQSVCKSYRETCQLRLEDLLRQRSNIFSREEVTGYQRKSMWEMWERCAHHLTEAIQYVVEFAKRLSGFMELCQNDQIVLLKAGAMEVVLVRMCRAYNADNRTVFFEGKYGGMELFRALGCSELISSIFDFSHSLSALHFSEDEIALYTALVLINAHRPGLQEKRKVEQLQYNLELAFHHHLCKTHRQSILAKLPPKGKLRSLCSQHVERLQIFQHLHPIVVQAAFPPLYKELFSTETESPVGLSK

Chain of human RORγt LBD fused to the DNA binding domain of the GAL4 protein (P51449 258-518): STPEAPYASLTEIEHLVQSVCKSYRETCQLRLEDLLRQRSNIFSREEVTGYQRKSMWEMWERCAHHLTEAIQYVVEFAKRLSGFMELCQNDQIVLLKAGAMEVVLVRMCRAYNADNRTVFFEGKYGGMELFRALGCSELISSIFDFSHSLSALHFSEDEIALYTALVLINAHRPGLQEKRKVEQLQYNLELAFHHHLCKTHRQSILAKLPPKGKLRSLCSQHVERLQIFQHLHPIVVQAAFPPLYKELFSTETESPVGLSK

As for `Cn1cncc1C(O)(c1ccc(C(F)(F)F)nc1)c1ccc2nc(N3CCC3)c(OCC(F)(F)F)c(Cl)c2c1` (single isomer, unassigned) [Example 89c, [2-Azetidin-1-yl-4-chloro-3-(2,2,2-trifluoroethoxy)quinolin-6-yl](1-methyl-1H-imidazol-5-yl)[6-(trifluoromethyl)pyridin-3-yl]methanol], the 50% inhibitory concentration (IC50) (commonly the concentration that gives 50% inhibition) in assay [1] (Homo sapiens) is 0.079 µM.

In assay [1] (Homo sapiens), `Cn1cncc1C(O)(c1ccc(Cl)cc1)c1ccc2nc(N3CCC3)c(OCC(F)(F)F)c(Cl)c2c1` (single isomer, unassigned) [Example 90c, [2-Azetidin-1-yl-4-chloro-3-(2,2,2-trifluoroethoxy)quinolin-6-yl](4-chlorophenyl)(1-methyl-1H-imidazol-5-yl)methanol] displayed an IC50 of 0.2 µM.

In turn, `CCOc1c(OC)nc2ccc(C(O)(c3ccc(C(F)(F)F)nc3)c3cncn3C)cc2c1Cl` (single isomer, unassigned) [Example 91c, (4-Chloro-3-ethoxy-2-methoxyquinolin-6-yl)(1-methyl-1H-imidazol-5-yl)[6-(trifluoromethyl)pyridin-3-yl]methanol] registered a half-maximal inhibitory concentration (IC50) in assay [1] (Homo sapiens) of 0.52 µM.

In the case of `CC(C)Oc1c(N2CCC2)nc2ccc(C(O)(c3ccc(Cl)cc3)c3cncn3C)cc2c1Cl` (single isomer, unassigned) [Example 94c, [2-Azetidin-1-yl-4-chloro-3-(1-methylethoxy)quinolin-6-yl](4-chlorophenyl)(1-methyl-1H-imidazol-5-yl)methanol], the midpoint of inhibition in assay [1] (Homo sapiens), the IC50, lay at 0.38 µM.

With `COc1nc2ccc(C(O)(c3ccc(C(F)(F)F)nc3)c3cncn3C)cc2c(Cl)c1OC(C)C` (single isomer, unassigned) [Example 95b, [4-Chloro-2-methoxy-3-(1-methylethoxy)quinolin-6-yl](1-methyl-1H-imidazol-5-yl)[6-(trifluoromethyl)pyridin-3-yl]methanol], the half-maximal inhibitory concentration (IC50) in assay [1] (Homo sapiens) came to 0.061 µM.

Take `COc1nc2ccc(C(O)(c3ccc(Cl)cc3)c3cncn3C)cc2c(Cl)c1OC(C)C` (single isomer, unassigned) [Example 99b, [4-Chloro-2-methoxy-3-(1-methylethoxy)quinolin-6-yl](4-chlorophenyl)(1-methyl-1H-imidazol-5-yl)methanol]: the concentration for half-maximal inhibition (IC50) in assay [1] (Homo sapiens) was 1.2 µM.

Turning to `COc1nc2ccc(C(O)(c3ccnc(C(F)(F)F)c3)c3cncn3C)cc2c(Cl)c1CN1CCC(C(F)(F)F)CC1` (single isomer, unassigned) [Example 100c, (4-Chloro-2-methoxy-3-((4-(trifluoromethyl)piperidin-1-yl)methyl)quinolin-6-yl)(1-methyl-1H-imidazol-5-yl)(2-(trifluoromethyl)pyridin-4-yl)methanol], in assay [2], the “RORγt (LBD) Reporter Assay, % inhibition @ 6 μM” value (“RORγt … % inhibition @ 6 μM” for short) amounted to 100%. Besides, it took 0.0076 µM to reach half-maximal inhibition in assay [1] (Homo sapiens, CD4+ T) (IC50).

`COc1nc2ccc(C(O)(c3ccc(Cl)cc3)c3cncn3C)cc2c(Cl)c1CN1CCC(n2cccn2)CC1` (single isomer, unassigned) [Example 101c, (3-((4-(1H-Pyrazol-1-yl)piperidin-1-yl)methyl)-4-chloro-2-methoxyquinolin-6-yl)(4-chlorophenyl)(1-methyl-1H-imidazol-5-yl)methanol] gave an IC50 in assay [1] (Homo sapiens) of 0.36 µM.

For the compound `COc1nc2ccc(C(O)(c3cnnn3C)c3cnc(C)n3C)cc2c(Cl)c1CN1CCC(C(F)(F)F)CC1` (single isomer, unassigned) [Example 106c, (4-Chloro-2-methoxy-3-((4-(trifluoromethyl)piperidin-1-yl)methyl)quinolin-6-yl)(1,2-dimethyl-1H-imidazol-5-yl)(1-methyl-1H-1,2,3-triazol-5-yl)methanol], the “RORγt … % inhibition @ 6 μM” value in assay [2] was 100%. In assay [1], this compound came in with an IC50 of 0.0014 µM.

`COc1nc2ccc(C(O)(c3cnc(C)n3C)C3CN(C(C)=O)C3)cc2c(Cl)c1CN1CCC(C(F)(F)F)CC1` (single isomer, unassigned) [Example 124b, 1-(3-((4-Chloro-2-methoxy-3-((4-(trifluoromethyl)piperidin-1-yl)methyl)quinolin-6-yl)(1,2-dimethyl-1H-imidazol-5-yl)(hydroxy)methyl)azetidin-1-yl)ethanone]: in assay [1], the IC50 was > 6 µM.

Compound `COc1nc2ccc(C(O)(c3cnc(C)n3C)C3CN(C(C)=O)C3)cc2c(Cl)c1CN1CCC(C(F)(F)F)CC1` (single isomer, unassigned) [Example 124c, 1-(3-((4-Chloro-2-methoxy-3-((4-(trifluoromethyl)piperidin-1-yl)methyl)quinolin-6-yl)(1,2-dimethyl-1H-imidazol-5-yl)(hydroxy)methyl)azetidin-1-yl)ethanone] returned an IC50 in assay [1] of 0.035 µM.

As to `COc1nc2ccc(C(O)(c3ccc(C)nc3C)c3cnnn3C)cc2c(Cl)c1CC(F)(F)F` (single isomer, unassigned) [Example 143c, [4-Chloro-2-methoxy-3-(2,2,2-trifluoroethyl)quinolin-6-yl](2,6-dimethylpyridin-3-yl)(1-methyl-1H-1,2,3-triazol-5-yl)methanol], the “RORγt (LBD) Reporter Assay, % inhibition” value in assay [2] turned out to be 100%. The half-maximal inhibitory concentration (IC50) in assay [1] (Homo sapiens, CD4+ T) amounted to 0.37 µM.

Consider `COc1nc2ccc([C@@](O)(c3ccccc3)C3CCN(C(C)=O)CC3)cc2c(Cl)c1CC1CCOCC1` [Example 4b], for which, in assay [2], the half-maximal inhibitory concentration (IC50) was > 6 µM and the “RORγt … % inhibition @ 6 μM” value is reported as 42%. Further, the IC50 in assay [1] was > 6 µM. In assay [3], the Kd (commonly the constant that tells how readily two partners part at equilibrium) came out at 0.009 µM.

In assay [1] (Homo sapiens), `CCOC(=O)c1c(C(F)(F)F)nc2ccc(C(O)(c3cccnc3)c3cccnc3)cc2c1C(F)(F)F` [Example 8, Ethyl 6-(hydroxydi(pyridin-3-yl)methyl)-2,4-bis(trifluoromethyl)quinoline-3-carboxylate.TFA] came in with an IC50 of 0.2 µM.

`CC(C)c1c(Cl)nc2ccc(C(O)(c3cccnc3)c3cccc(Cl)c3)cc2c1Cl` (centres unmarked) [Example 19, (3-Chlorophenyl) [2,4-dichloro-3-(1-methylethyl)quinolin-6-yl]pyridin-3-ylmethanol.TFA] gave an IC50 in assay [1] (Homo sapiens) of 1.3 µM.

On to `CC(C)(C)c1c(/C=C/c2ccccc2)nc2ccc(C(O)(c3cccnc3)c3cccc(Cl)c3)cc2c1Cl` (centres unmarked) [Example 27, {3-tert-Butyl-4-chloro-2-[(E)-2-phenylethenyl]quinolin-6-yl}(3-chlorophenyl)pyridin-3-ylmethanol.TFA], for which the IC50 in assay [1] (Homo sapiens) is ~3 µM.

As to `COc1nc2ccc(C(O)(c3cnc(C)n3C)c3cnc(C)n3C)cc2c(Cl)c1CN1CCC(C(F)(F)F)CC1` [Example 111, (4-Chloro-2-methoxy-3-((4-(trifluoromethyl)piperidin-1-yl)methyl)quinolin-6-yl)bis(1,2-dimethyl-1H-imidazol-5-yl)methanol], the IC50 in assay [1] (Homo sapiens) is 0.017 µM.
